Experimental data from patent US6495133B1, “Gliocladium roseum strains useful for the control of fungal pathogens in plants” (priority 1998, dated 2002).
Read-outs that look alike come from different tables or passages of the source.

Experiments:
Fusarium solani [1] = test: Control of fusarium root rot in field pea, growth room experiments; settings: Field pea (cv. Radley)
Description: (§1) In growth room experiments, seeds were planted in wood planting flats (35.5×47.0×9.0 cm) containing soil mixture of 2:1:1 of soil, perlite and peat moss. The soil mixture was pasteurized and mixed at about 2% v/v with artificially infested vermiculite that was moistened with 0.4% malt extract, autoclaved, inoculated with B. solani, and incubated at 20° C. for 7 days prior to the planting. […] For each treatment 100 seeds were planted in each of the 4-replicate flats. The planted flats were placed in a growth room maintained at 20° C. and with a 14-h photoperiod at 350 mol.m^−2.s^−1 light intensity by fluorescent and incandescent lamps. All experiments were arranged in a completely randomized block design. Emergence was counted 7 days after planting and other parameters were assessed after digging out plants 14 to 16 days after planting. Disease severity was rated on a scale of 0 (no visible lesions on lower stem and roots, seedling is well developed) to 9 (death of plant, the seedling died back quickly after emergence).

field pea [2] = test: Comparison and compatibility of ACM941 with thiram fungicide, field pea, field experiments; assay type: in vivo
Aphanomyces euteiches = test: Control of aphanomyces root rot in field pea, field experiments; assay type: in vivo
Sclerotinia sclerotiorum [3] = test: Control of sclerotinia rot in field pea, field experiments; assay type: in vivo
Sclerotinia sclerotiorum [4] = test: Control of sclerotinia rot in field pea, growth room experiments
Description: as §1
The seed treatment procedures, inoculum preparation, inoculation and assessment methods for both growth room and field experiments were the same as described above.

Mycosphaerella pinodes [5] = test: Control of seed-borne phase of mycosphaerella blight in field pea, field experiments; assay type: in vivo; settings: for increased emergence by / increased yield by: average of two cultivars
Mycosphaerella pinodes [6] = test: Control of mycosphaerella seedling blight/root rot in field pea, field experiments; assay type: in vivo
field pea [7] = test: Effect of seeding dates on efficacy of seed treatment, field experiments; assay type: in vivo; on yield: unit not given here
Fusarium oxysporum = test: Control of fusarium wilt in field pea, growth room experiments; settings: Field pea (cv. Radley)
Description: as §1

Mycosphaerella pinodes [8] = test: Control of mycosphaerella seedling blight/root rot in field pea, growth room experiments; settings: Field pea (cv. Radley)
Description: as §1

[9] = tested on: Fusarium graminearum, Bipolaris sorokiniana, F. avenaceum, Alternaria alternata, and other Fusarium species (naturally infected seeds); assay type: in vivo
Fusarium solani [10] = test: Control of fusarium root rot in field pea, field experiments; assay type: in vivo
[11] = Lacombe site, average of two cultivars and two years
[12] = Morden site, average of two cultivars and two years
[13] = Healthy-looking seed (HL), 1995, AC Tamor
[14] = Healthy-looking seed (HL), 1995, Radley
[15] = Healthy-looking seed (HL), 1996, AC Tamor
[16] = Healthy-looking seed (HL), 1996, Radley
[17] = Visibly poor seed (VP), 1995, AC Tamor
[18] = Visibly poor seed (VP), 1995, Radley
[19] = Visibly poor seed (VP), 1996, AC Tamor
[20] = Visibly poor seed (VP), 1996, Radley
[21] = Optimum seeding, 1995, AC Tamor
[22] = Optimum seeding, 1996, AC Tamor
[23] = barley, average of the two cultivars

## CN(C)C(=S)SSC(=S)N(C)C [Thiram, thiram]
Fusarium solani [1]
  Dry wt.: 0.27 a g/plant
  Emergence: 57.5 a %
  Fresh wt.: 2.7 a g/plant
  Root rot severity: 3.3 ab 0-9
Field pea [2]; [11]
  increased emergence by: 4%
  reduced yield by: 4%
Field pea [2]; Lacombe, Alberta, 1996, Grande
  Emergence: 87.2 a
  Yield: 8729 a
Field pea [2]; Lacombe, Alberta, 1996, Radley
  Emergence: 84.0 a
  Yield: 5782 a
Field pea [2]; Lacombe, Alberta, 1997, Grande
  Emergence: 67.0 b
  Yield: 6507 b
Field pea [2]; Lacombe, Alberta, 1997, Radley
  Emergence: 87.3 a
  Yield: 4300 a
Field pea [2]; [12]
  increased emergence by: 38%
  increased yield by: 29%
Field pea [2]; Morden, Manitoba, 1996, Grande
  Emergence: 64.9 a
  Yield: 4541 a
Field pea [2]; Morden, Manitoba, 1996, Radley
  Emergence: 74.1 a
  Yield: 3286 a
Field pea [2]; Morden, Manitoba, 1997, Grande
  Emergence: 65.0 a
  Yield: 1878 a
Field pea [2]; Morden, Manitoba, 1997, Radley
  Emergence: 79.1 a
  Yield: 1064 c
Field pea [2]; average of the four station years, two sites
  increased yield by: 12%
Aphanomyces euteiches; 1998, Carneval
  Emergence: 88.1 a
  Yield: 6122 a
Aphanomyces euteiches; 1998, Radley
  Emergence: 91.9 a
  Yield: 5110 a
Aphanomyces euteiches; 1999, Carneval
  Emergence: 90.3 a
  Yield: 4986 a
Aphanomyces euteiches; 1999, Radley
  Emergence: 81.0 a
  Yield: 4315 a
Sclerotinia sclerotiorum [3]; 1996, AC Tamor
  Emergence: 41.8 a
  Yield: 4327 a
Sclerotinia sclerotiorum [3]; 1996, Radley
  Emergence: 48.9 a
  Yield: 2598 a
Sclerotinia sclerotiorum [3]; 1997, AC Tamor
  Emergence: 49.7 a
  Yield: 5402 b
Sclerotinia sclerotiorum [3]; 1997, Radley
  Emergence: 50.5 a
  Yield: 5049 a
Sclerotinia sclerotiorum [4]; Field pea (cv. Radley)
  Dry wt.: 0.23 a g/plant
  Emergence: 68.1 a %
  Fresh wt.: 2.2 a g/plant
  Root rot severity: 3.2 ab 0-9
Sclerotinia sclerotiorum [4]; greenhouse experiments
  effect on dry weight compared to the nontreated control: Neither ACM941 nor thiram fungicide showed an increase in dry weight
Mycosphaerella pinodes [5]; HL seeds, 1995
  increased emergence by: 108%
  increased yield by: 106%
Mycosphaerella pinodes [5]; HL seeds, 1996
  decreased yield by: 6%
  increased emergence by: 38%
Mycosphaerella pinodes [5]; [13]
  Emergence: 75.9 a
  Yield: 2892 a
Mycosphaerella pinodes [5]; [14]
  Emergence: 91.0 a
  Yield: 459 a
Mycosphaerella pinodes [5]; [15]
  Emergence: 77.9 a
  Yield: 7381 a
Mycosphaerella pinodes [5]; [16]
  Emergence: 89.1 a
  Yield: 3114 b
Mycosphaerella pinodes [5]; VP seeds, 1995
  increased emergence by: 293%
  increased yield by: 148%
Mycosphaerella pinodes [5]; VP seeds, 1996
  increased emergence by: 55%
  increased yield by: 4%
Mycosphaerella pinodes [5]; [17]
  Emergence: 51.0 a
  Yield: 260 a
Mycosphaerella pinodes [5]; [18]
  Emergence: 29.1 a
  Yield: 643 a
Mycosphaerella pinodes [5]; [19]
  Emergence: 49.5 a
  Yield: 7228 a
Mycosphaerella pinodes [5]; [20]
  Emergence: 57.5 a
  Yield: 4410 a
Mycosphaerella pinodes [6]; 1996, AC Tamor
  Emergence: 76.3 a
  Yield: 2140 ab
Mycosphaerella pinodes [6]; 1996, Radley
  Emergence: 84.5 a
  Yield: 1623 a
Mycosphaerella pinodes [6]; 1997, AC Tamor
  Emergence: 80.0 a
  Yield: 5645 a
Mycosphaerella pinodes [6]; 1997, Radley
  Emergence: 80.2 a
  Yield: 3328 a
Field pea [7]; Early seeding, 1995, AC Tamor
  Emergence: 66.7 a
  Yield: 4934 a
Field pea [7]; Early seeding, 1995, Radley
  Emergence: 72.4 a
  Yield: 4566 a
Field pea [7]; Early seeding, 1996, AC Tamor
  Emergence: 81.6 a
  Yield: 2069 b
Field pea [7]; Early seeding, 1996, Radley
  Emergence: 79.5 a
  Yield: 1295 a
Field pea [7]; Late seeding, 1995, AC Tamor
  Emergence: 35.8 b
  Yield: 2454 a
Field pea [7]; Late seeding, 1995, Radley
  Emergence: 55.0 a
  Yield: 3235 a
Field pea [7]; Late seeding, 1996, AC Tamor
  Emergence: 87.2 a
  Yield: 2857 a
Field pea [7]; Late seeding, 1996, Radley
  Emergence: 84.7 a
  Yield: 1706 a
Field pea [7]; [21]
  Emergence: 62.8 a
  Yield: 3855 a
Field pea [7]; Optimum seeding, 1995, Radley
  Emergence: 81.3 a
  Yield: 2901 a
Field pea [7]; [22]
  Emergence: 75.5 a
  Yield: 3152 a
Field pea [7]; Optimum seeding, 1996, Radley
  Emergence: 84.7 a
  Yield: 1580 a
Fusarium oxysporum
  Dry wt.: 0.34 a g/plant
  Emergence: 86.3 a %
  Fresh wt.: 3.1 a g/plant
  Root rot severity: 1.3 a 0-9
Mycosphaerella pinodes [8]
  Dry wt.: 0.32 a g/plant
  Emergence: 67.5 a %
  Fresh wt.: 3.1 a g/plant
  Root rot severity: 2.3 a 0-9
[9]; Barley, Argyle
  Dry wt.: 0.32 a g/plant
  Emergence: 93.9 a %
  Fresh wt.: 1.24 a g/plant
  Root rot incidence: 10.8 b %
  Root rot severity: 0.5 b 0-9
[9]; Barley, Manley
  Dry wt.: 0.22 a g/plant
  Emergence: 84.3 a %
  Fresh wt.: 1.04 a g/plant
  Root rot incidence: 77.8 a %
  Root rot severity: 4.2 ab 0-9
[9]; Wheat, Katepwa
  Dry wt.: 0.23 a g/plant
  Emergence: 70.7 a %
  Fresh wt.: 0.96 a g/plant
  Root rot incidence: 12.5 ab %
  Root rot severity: 0.7 ab 0-9
[9]; Wheat, Plenty
  Dry wt.: 0.16 a g/plant
  Emergence: 88.4 a %
  Fresh wt.: 0.79 a g/plant
  Root rot incidence: 10.1 b %
  Root rot severity: 0.6 b 0-9
[9]; Wheat, Sceptre
  Dry wt.: 0.14 a g/plant
  Emergence: 52.4 a %
  Fresh wt.: 0.65 a g/plant
  Root rot incidence: 24.7 b %
  Root rot severity: 1.1 b 0-9
[9]; [23]
  reduced root rot incidence by: 31%
  reduced root rot severity by: 38%
Fusarium solani [10]; 1996, AC Tamor
  Emergence: 76.1 a
  Yield: 5374 a
Fusarium solani [10]; 1996, Radley
  Emergence: 81.4 a
  Yield: 3674 a
Fusarium solani [10]; 1997, AC Tamor
  Emergence: 66.2 a
  Yield: 5600 a
Fusarium solani [10]; 1997, Radley
  Emergence: 65.7 b
  Yield: 3379 a
